# Measurements from US20230126447A1, “OCULAR DRUG DEPOT FOR COMPLEMENT-MEDIATED DISORDERS” (priority 2020, published 2023).
# Like-named read-outs stand apart in the source and are kept apart here.
# What was measured:
# [1] = Ocular tissue and plasma pharmacokinetics, 15 mg/kg oral, New Zealand White rabbits (Example 3/5); format: in vivo
# AP activity [2] = assay: cells; conditions: Erythrocyte, read-out: IC50 for PNH erythrocyte hemolysis
# AP activity [3] = assay: Wieslab assay (AP activity in vitro); format: biochemical
# [4] = NZW rabbit, 15 mg/kg single oral dose, Day 1, 24 h
# [5] = NZW rabbit, 15 mg/kg single oral dose, Day 1, 24 h, 15 mg/kg
# [6] = NZW rabbit, 15 mg/kg single oral dose, Day 1, 96 h
# [7] = NZW rabbit, 15 mg/kg single oral dose, Day 1, 96 h, 15 mg/kg
# [8] = NZW rabbit, 15 mg/kg single oral dose, Day 1, 168 h
# [9] = NZW rabbit, 15 mg/kg single oral dose, Day 1, 168 h, 15 mg/kg
# [10] = NZW rabbit, 15 mg/kg single oral dose, Day 1, 240 h, 15 mg/kg
# [11] = NZW rabbits, Day 1, 15 mg/kg single dose, 0 hr
# [12] = NZW rabbits, Day 1, 15 mg/kg single dose, 168 hr
# [13] = NZW rabbits, Day 1, 15 mg/kg single dose, 240 hr
# [14] = New Zealand White, po, Iris-Ciliary Body, NZW rabbit, 15 mg/kg single dose, Day 1
# [15] = New Zealand White, po, Vitreous Humor, NZW rabbit, 15 mg/kg single dose, Day 1
# [16] = plasma, NZW rabbit, 15 mg/kg single dose, Day 1
# [17] = retina, NZW rabbit, 15 mg/kg single dose, Day 1
structure (smiles),measurement,setting,value
"CC(=O)c1nn(CC(=O)N2C[C@H](F)C[C@H]2C(=O)Nc2cccc(Br)n2)c2ccc(-c3cnc(C)nc3)cc12 [Compound 1, (2S,4R)-1-(2-(3-Acetyl-5-(2-methylpyrimidin-5-yl)-1H-indazol-1-yl)acetyl)-N-(6-bromopyridin-2-yl)-4-fluoropyrrolidine-2-carboxamide]",Mean Aqueous Humor concentration,[1]; [4],BLQ^a
same,Mean Vitreous Humor concentration,[1]; [4],BLQ^a
same,Mean Iris-Ciliary Body concentration,[1]; [5],BLQ^a and BLQ
same,Mean retina concentration,[1]; [5],BLQ^a and BLQ
same,Mean Aqueous Humor concentration,[1]; [6],BLQ^a
same,Mean Vitreous Humor concentration,[1]; [6],BLQ^a
same,Mean Choroid-RPE concentration,[1]; [7],BLQ^a and BLQ
same,Mean Iris-Ciliary Body concentration,[1]; [7],BLQ^a and BLQ
same,Mean plasma concentration,[1]; [7],BLQ^a and BLQ
same,Mean retina concentration,[1]; [7],BLQ^a and BLQ
same,Mean Aqueous Humor concentration,[1]; [8],BLQ^a
same,Mean Vitreous Humor concentration,[1]; [8],BLQ^a
same,Mean Choroid-RPE concentration,[1]; [9],BLQ^a and BLQ
same,Mean Iris-Ciliary Body concentration,[1]; [9],BLQ^a and BLQ
same,Mean retina concentration,[1]; [9],BLQ^a and BLQ
same,Mean Aqueous Humor concentration,"[1]; NZW rabbit, 15 mg/kg single oral dose, Day 1, 240 h",BLQ^a
same,Mean Choroid-RPE concentration,[1]; [10],BLQ^a and BLQ
same,Mean Iris-Ciliary Body concentration,[1]; [10],BLQ^a and BLQ
same,Mean plasma concentration,[1]; [10],BLQ^a and BLQ
same,Mean retina concentration,[1]; [10],BLQ^a and BLQ
same,Mean Choroid-RPE concentration,[1]; [11],BLQ
same,Mean retina concentration,[1]; [11],BLQ
same,Mean retina concentration,"[1]; NZW rabbits, Day 1, 15 mg/kg single dose, 24 hr",BLQ
same,Mean Choroid-RPE concentration,"[1]; NZW rabbits, Day 1, 15 mg/kg single dose, 96 hr",BLQ
same,Mean Choroid-RPE concentration,[1]; [12],BLQ
same,Mean retina concentration,[1]; [12],BLQ
same,Mean Choroid-RPE concentration,[1]; [13],BLQ
same,Mean retina concentration,[1]; [13],BLQ
same,concentration at 1 h,"[1]; New Zealand White, aqueous humor, NZW rabbit, 15 mg/kg single oral dose, Day 1, 1 h, read-out: Mean Aqueous Humor concentration",4 ng/mL
same,concentration at 1 h,"[1]; New Zealand White, choroid-RPE, NZW rabbit, 15 mg/kg single oral dose, Day 1, 1 h, read-out: Mean Choroid-RPE concentration",172 ng/g
same,concentration at 6 h,"[1]; New Zealand White, choroid-RPE, NZW rabbit, 15 mg/kg single oral dose, Day 1, 6 h, read-out: Mean Choroid-RPE concentration",31.5 ng/g
same,concentration at 24 h,"[1]; New Zealand White, choroid-RPE, NZW rabbit, 15 mg/kg single oral dose, Day 1, 24 h, read-out: Mean Choroid-RPE concentration",15.1 ng/g
same,concentration at 1 h,"[1]; New Zealand White, plasma, NZW rabbit, 15 mg/kg single oral dose, Day 1, 1 h, read-out: Mean plasma concentration",310 ng/mL
same,concentration at 6 h,"[1]; New Zealand White, plasma, NZW rabbit, 15 mg/kg single oral dose, Day 1, 6 h, read-out: Mean plasma concentration",35.1 ng/mL
same,concentration at 24 h,"[1]; New Zealand White, plasma, NZW rabbit, 15 mg/kg single oral dose, Day 1, 24 h, read-out: Mean plasma concentration",11.1 ng/mL
same,Cmax,[1]; [14],117 ng/g
same,MRT last,[1]; [14],1 h
same,AUC(0-t),[1]; [15],30.3 ng·h/mL
same,Cmax,[1]; [15],7.61 ng/mL
same,Cmax,"[1]; New Zealand White, po, plasma, NZW rabbit, 15 mg/kg single dose, Day 1",310 ng/mL
same,concentration at 1 h,"[1]; New Zealand White, rabbit, choroid-RPE, oral, NZW rabbits, Day 1, 15 mg/kg single dose, 1 hr, read-out: Mean Choroid-RPE Concentration",172 ng/g
same,concentration at 6 h,"[1]; New Zealand White, rabbit, choroid-RPE, oral, NZW rabbits, Day 1, 15 mg/kg single dose, 6 hr, read-out: Mean Choroid-RPE Concentration",31.5 ng/g
same,concentration at 24 h,"[1]; New Zealand White, rabbit, choroid-RPE, oral, NZW rabbits, Day 1, 15 mg/kg single dose, 24 hr, read-out: Mean Choroid-RPE Concentration",15.1 ng/g
same,concentration at 1 h,"[1]; New Zealand White, rabbit, retina, oral, NZW rabbits, Day 1, 15 mg/kg single dose, 1 hr, read-out: Mean Retina Concentration",200 ng/g
same,concentration at 6 h,"[1]; New Zealand White, rabbit, retina, oral, NZW rabbits, Day 1, 15 mg/kg single dose, 6 hr, read-out: Mean Retina Concentration",26 ng/g
same,concentration at 1 h,"[1]; New Zealand White, retina, NZW rabbit, 15 mg/kg single oral dose, Day 1, 1 h, read-out: Mean retina concentration",200 ng/g
same,concentration at 6 h,"[1]; New Zealand White, retina, NZW rabbit, 15 mg/kg single oral dose, Day 1, 6 h, read-out: Mean retina concentration",26 ng/g
same,concentration at 1 h,"[1]; New Zealand White, vitreous humor, NZW rabbit, 15 mg/kg single oral dose, Day 1, 1 h, read-out: Mean Vitreous Humor concentration",7.61 ng/mL
same,concentration at 6 h,"[1]; New Zealand White, vitreous humor, NZW rabbit, 15 mg/kg single oral dose, Day 1, 6 h, read-out: Mean Vitreous Humor concentration",3 ng/mL
same,MRTlast,[1]; [16],4.01 h
same,Tlast,[1]; [16],24 h
same,MRTlast,[1]; [17],1.49 h
same,Tlast,[1]; [17],6 h
same,IC50,AP activity [2],0.014 µM
same,IC50,AP activity [3],0.026 µM
